Assay results as given in the NIST ThermoML archive (doi:10.1016/j.jct.2006.05.004).

How the values were obtained:
[1] = excess molar enthalpy (molar enthalpy of mixing); xn = mol fraction of the nth substance listed; conditions: 298.15 K, 101 kPa, Liquid
[2] = xn = mol fraction of the nth substance listed; conditions: 298.15 K, 101 kPa, Liquid

BrCCBr [1,2-dibromoethane] + CCC(=O)OC
Conditions	excess molar enthalpy [kcal/mol]	mass density [kg/m3]
[1], x1 = 0.0552	0.0107	–
[1], x1 = 0.1177	0.0166	–
[1], x1 = 0.18	0.0207	–
[1], x1 = 0.2446	0.0215	–
[1], x1 = 0.3072	0.0203	–
[1], x1 = 0.3659	0.0179	–
[1], x1 = 0.4203	0.0141	–
[1], x1 = 0.4702	0.00939	–
[1], x1 = 0.4789	0.00657	–
[1], x1 = 0.5086	0.00466	–
[1], x1 = 0.5255	0.00246	–
[1], x1 = 0.5837	-0.00251	–
[1], x1 = 0.6456	-0.00514	–
[1], x1 = 0.7119	-0.00614	–
[1], x1 = 0.7852	-0.00672	–
[1], x1 = 0.8597	-0.00547	–
[1], x1 = 0.9321	-0.00287	–
[2], x2 = 0.0544	–	2090.48
[2], x2 = 0.1086	–	2015.14
[2], x2 = 0.1617	–	1942.18
[2], x2 = 0.213	–	1872.81
[2], x2 = 0.2714	–	1794.99
[2], x2 = 0.3254	–	1724.12
[2], x2 = 0.4447	–	1570.72
[2], x2 = 0.5056	–	1494.18
[2], x2 = 0.561	–	1425.55
[2], x2 = 0.6166	–	1357.57
[2], x2 = 0.6838	–	1276.41
[2], x2 = 0.743	–	1205.94
[2], x2 = 0.8086	–	1129
[2], x2 = 0.8715	–	1056.36
[2], x2 = 0.9358	–	982.68

BrCCBr [1,2-dibromoethane] + CCCC(=O)OC
Conditions	excess molar enthalpy [kcal/mol]	mass density [kg/m3]
[1], x2 = 0.0509	0.0049	–
[1], x2 = 0.1042	0.00772	–
[1], x2 = 0.1621	0.00858	–
[1], x2 = 0.2266	0.00748	–
[1], x2 = 0.2928	0.00418	–
[1], x2 = 0.3635	-0.00086	–
[1], x2 = 0.4243	-0.00672	–
[1], x2 = 0.4796	-0.0115	–
[1], x2 = 0.537	-0.0148	–
[1], x2 = 0.6008	-0.0165	–
[1], x2 = 0.6755	-0.0168	–
[1], x2 = 0.7537	-0.0152	–
[1], x2 = 0.8373	-0.0118	–
[1], x2 = 0.9188	-0.00707	–
[2], x2 = 0.0456	–	2090.91
[2], x2 = 0.0934	–	2013.52
[2], x2 = 0.138	–	1943.4
[2], x2 = 0.1885	–	1866.04
[2], x2 = 0.2437	–	1784.45
[2], x2 = 0.2925	–	1714.77
[2], x2 = 0.3454	–	1641.47
[2], x2 = 0.4047	–	1562.1
[2], x2 = 0.5193	–	1415.94
[2], x2 = 0.5812	–	1340.87
[2], x2 = 0.6461	–	1264.87
[2], x2 = 0.7118	–	1190.49
[2], x2 = 0.7767	–	1119.58
[2], x2 = 0.8458	–	1046.47
[2], x2 = 0.9209	–	970.06

BrCCBr [1,2-dibromoethane] + CCCCC(=O)OC
Conditions	excess molar enthalpy [kcal/mol]	mass density [kg/m3]
[1], x2 = 0.0457	0.00222	–
[1], x2 = 0.1054	0.00361	–
[1], x2 = 0.1756	0.00289	–
[1], x2 = 0.2495	-0.000765	–
[1], x2 = 0.3112	-0.0059	–
[1], x2 = 0.3523	-0.0102	–
[1], x2 = 0.3893	-0.0141	–
[1], x2 = 0.4631	-0.0184	–
[1], x2 = 0.5105	-0.0206	–
[1], x2 = 0.5845	-0.0217	–
[1], x2 = 0.6874	-0.0198	–
[1], x2 = 0.7978	-0.0149	–
[1], x2 = 0.9098	-0.00805	–
[2], x2 = 0.0413	–	2086.33
[2], x2 = 0.0834	–	2009.4
[2], x2 = 0.1257	–	1934.54
[2], x2 = 0.1717	–	1857.45
[2], x2 = 0.2221	–	1776.23
[2], x2 = 0.2644	–	1711.22
[2], x2 = 0.3124	–	1640.62
[2], x2 = 0.3717	–	1557.38
[2], x2 = 0.4812	–	1414.72
[2], x2 = 0.5471	–	1335.17
[2], x2 = 0.6142	–	1258.34
[2], x2 = 0.6822	–	1184.61
[2], x2 = 0.755	–	1109.85
[2], x2 = 0.833	–	1033.97
[2], x2 = 0.9091	–	963.97
